Assay results: patent US12685726B2, “Sulfoximines as inhibitors of NaV1.8” (Gruenenthal GmbH, priority 2022, dated 2026)

What follows are molecules tested against T1, human NaV 1.8 (Homo sapiens, UniProt Q9Y5Y9) (assay: Automated whole-cell patch clamp (Qube384) voltage-clamp recordings of sodium currents in HEK-NaV1.8 cell line). Conditions: read-out: Potency category (human NaV 1.8 IC50).
T1 construct: expressed in transfected cells; host or cells: HEK (recombinant cell line)
Assay type: cell-based
Summary of the method: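 HEK cells expressing NaV1.8 with b3, whole-cell automated voltage clamp at room temperature or 19° C.; CsF-based internal, pH 7.4 external. State-dependent (−120 mV, V1/2 4 s, −10 mV test pulses) and 10/20 Hz 40-pulse protocols; ~12 min compound, vehicle-corrected, IC50 by 4-parameter logistic fit.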

T1 sequence (Q9Y5Y9 whole entry): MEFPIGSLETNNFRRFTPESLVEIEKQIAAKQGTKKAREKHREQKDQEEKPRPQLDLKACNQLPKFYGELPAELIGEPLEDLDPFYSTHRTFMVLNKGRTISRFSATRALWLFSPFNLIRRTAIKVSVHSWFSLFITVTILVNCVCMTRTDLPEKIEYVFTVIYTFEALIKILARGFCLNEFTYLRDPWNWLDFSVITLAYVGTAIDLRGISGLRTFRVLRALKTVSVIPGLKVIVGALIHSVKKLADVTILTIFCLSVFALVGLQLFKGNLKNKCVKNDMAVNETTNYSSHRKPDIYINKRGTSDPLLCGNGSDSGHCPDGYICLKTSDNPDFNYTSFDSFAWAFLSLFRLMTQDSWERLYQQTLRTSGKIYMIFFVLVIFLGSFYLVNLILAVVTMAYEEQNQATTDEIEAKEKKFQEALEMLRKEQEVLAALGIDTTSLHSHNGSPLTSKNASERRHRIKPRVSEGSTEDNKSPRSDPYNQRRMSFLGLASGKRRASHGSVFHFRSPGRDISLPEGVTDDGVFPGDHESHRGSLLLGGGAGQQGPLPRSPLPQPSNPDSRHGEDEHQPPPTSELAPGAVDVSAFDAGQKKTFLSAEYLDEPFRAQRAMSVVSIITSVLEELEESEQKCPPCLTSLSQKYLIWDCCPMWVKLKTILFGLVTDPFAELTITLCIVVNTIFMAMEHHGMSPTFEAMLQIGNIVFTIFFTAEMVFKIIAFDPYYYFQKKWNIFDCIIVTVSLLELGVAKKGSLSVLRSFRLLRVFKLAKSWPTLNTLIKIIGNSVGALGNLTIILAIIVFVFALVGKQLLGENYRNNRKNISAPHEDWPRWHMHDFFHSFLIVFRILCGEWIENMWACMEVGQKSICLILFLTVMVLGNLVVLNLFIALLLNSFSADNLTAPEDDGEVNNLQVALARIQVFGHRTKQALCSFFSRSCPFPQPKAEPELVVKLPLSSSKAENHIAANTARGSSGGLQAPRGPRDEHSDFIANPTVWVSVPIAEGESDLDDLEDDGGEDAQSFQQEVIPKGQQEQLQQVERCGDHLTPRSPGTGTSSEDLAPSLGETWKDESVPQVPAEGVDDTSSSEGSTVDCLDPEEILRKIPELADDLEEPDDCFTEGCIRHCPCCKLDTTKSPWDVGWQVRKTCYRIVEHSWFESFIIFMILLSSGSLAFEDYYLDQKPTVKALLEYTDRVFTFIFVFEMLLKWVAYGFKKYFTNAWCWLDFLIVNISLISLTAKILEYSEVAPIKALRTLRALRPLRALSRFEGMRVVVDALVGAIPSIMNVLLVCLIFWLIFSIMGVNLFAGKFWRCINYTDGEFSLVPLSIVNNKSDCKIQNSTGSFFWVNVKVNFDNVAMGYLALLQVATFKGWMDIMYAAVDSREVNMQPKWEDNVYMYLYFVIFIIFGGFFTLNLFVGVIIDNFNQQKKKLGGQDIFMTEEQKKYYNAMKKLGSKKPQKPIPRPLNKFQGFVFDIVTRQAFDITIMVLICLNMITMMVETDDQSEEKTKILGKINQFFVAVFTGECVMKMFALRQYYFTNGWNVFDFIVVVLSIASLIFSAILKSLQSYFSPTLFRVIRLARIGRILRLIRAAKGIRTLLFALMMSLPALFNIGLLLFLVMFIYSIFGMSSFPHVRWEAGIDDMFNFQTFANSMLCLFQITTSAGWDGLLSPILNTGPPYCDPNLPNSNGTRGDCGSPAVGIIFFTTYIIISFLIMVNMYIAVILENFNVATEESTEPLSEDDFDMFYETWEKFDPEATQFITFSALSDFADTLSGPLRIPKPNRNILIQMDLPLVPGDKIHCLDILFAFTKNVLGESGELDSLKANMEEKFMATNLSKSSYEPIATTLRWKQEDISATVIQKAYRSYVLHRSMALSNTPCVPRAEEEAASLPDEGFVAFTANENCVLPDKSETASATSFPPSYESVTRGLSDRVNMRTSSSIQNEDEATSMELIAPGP

Row | Compound | IC50 [nM]
1 | CC1(Cn2nc(C3(C#N)CC3)c(C(F)(F)F)c2C(=O)Nc2ccnc(S(C)(=N)=O)c2)CC(F)(F)C1 (single isomer, unassigned) [Example 68a, 3-(1-cyanocyclopropyl)-1-((3,3-difluoro-1-methylcyclobutyl)methyl)-N-(2-(S-methylsulfonimidoyl)pyridin-4-yl)-4-(trifluoromethyl)-1H-pyrazole-5-carboxamide] | ≤ 100
2 | CC1(Cn2nc(C3CC3)c(C(F)(F)F)c2C(=O)Nc2cncc(S(C)(=N)=O)c2)CC(F)(F)C1 (single isomer, unassigned) [Example 46a, 3-cyclopropyl-1-((3,3-difluoro-1-methylcyclobutyl)methyl)-N-(5-(S-methylsulfonimidoyl)pyridin-3-yl)-4-(trifluoromethyl)-1H-pyrazole-5-carboxamide] | ≤ 100
3 | CS(=N)(=O)c1cc(NC(=O)c2c(C(F)(F)F)c(C3CC3)nn2CC23CC(C(F)(F)F)(C2)C3)ccn1 (single isomer, unassigned) [Example 23b, 3-cyclopropyl-N-(2-(S-methylsulfonimidoyl)pyridin-4-yl)-4-(trifluoromethyl)-1-((3-(trifluoromethyl)bicyclo[1.1.1]pentan-1-yl)methyl)-1H-pyrazole-5-carboxamide] | ≤ 100
4 | CS(=N)(=O)c1cc(NC(=O)c2c(C(F)(F)F)c(C3CC3)nn2CC2(F)CC3(CCC3)C2)ccn1 (single isomer, unassigned) [Example 21b, 3-cyclopropyl-1-((2-fluorospiro[3.3]heptan-2-yl)methyl)-N-(2-(S-methylsulfonimidoyl)pyridin-4-yl)-4-(trifluoromethyl)-1H-pyrazole-5-carboxamide] | ≤ 100
5 | CC1(Cn2nc(C3(F)CC3)c(C(F)F)c2C(=O)Nc2cccc(S(C)(=N)=O)c2)CC(F)(F)C1 (single isomer, unassigned) [Example 135a, 1-((3,3-Difluoro-1-methylcyclobutyl)methyl)-4-(difluoromethyl)-3-(1-fluorocyclopropyl)-N-(3-(S-methylsulfonimidoyl)phenyl)-1H-pyrazole-5-carboxamide] | ≤ 100
6 | CC1(Cn2nc(C3(F)CC3)c(C(F)(F)F)c2C(=O)Nc2cccc([S@](C)(=O)=NC(=O)CO)c2)CC(F)(F)C1 [Example 151b] | ≤ 100
7 | C[S@@](=N)(=O)c1cc(NC(=O)c2c(C(F)(F)F)c(C3CC3)nn2C[C@H]2C(F)(F)C23CC3)ccn1 (single isomer, unassigned) [Example 79a, 3-cyclopropyl-1-((2,2-difluorospiro[2.2]pentan-1-yl)methyl)-N-(2-(S-methylsulfonimidoyl)pyridin-4-yl)-4-(trifluoromethyl)-1H-pyrazole-5-carboxamide] | ≤ 100
8 | CC1(Cn2nc(C3CCC3)c(C(F)(F)F)c2C(=O)Nc2ccnc(S(C)(=N)=O)c2)CC(F)(F)C1 (single isomer, unassigned) [Example 56a, 3-cyclobutyl-1-((3,3-difluoro-1-methylcyclobutyl)methyl)-N-(2-(S-methylsulfonimidoyl)pyridin-4-yl)-4-(trifluoromethyl)-1H-pyrazole-5-carboxamide] | ≤ 100
9 | Cc1c(C(C)(F)F)nn(CC23CC(C(F)(F)F)(C2)C3)c1C(=O)Nc1ccnc(S(C)(=N)=O)c1 (single isomer, unassigned) [Example 15b, 3-(1,1-difluoroethyl)-4-methyl-N-(2-(S-methylsulfonimidoyl)pyridin-4-yl)-1-((3-(trifluoromethyl)bicyclo[1.1.1]pentan-1-yl)methyl)-1H-pyrazole-5-carboxamide] | ≤ 100
10 | CS(=N)(=O)c1cc(NC(=O)c2c(C(F)(F)F)c(C3CC3)nn2CC23CC2CC(F)(F)C3)ccn1 (single isomer, unassigned) [Example 95c, 3-Cyclopropyl-1-((3,3-difluorobicyclo[3.1.0]hexan-1-yl)methyl)-N-(2-(S-methylsulfonimidoyl)pyridin-4-yl)-4-(trifluoromethyl)-1H-pyrazole-5-carboxamide] | ≤ 100
11 | CC1(Cn2nc(C34CC(C3)C4)c(C(F)F)c2C(=O)Nc2ccnc(S(C)(=N)=O)c2)CC(F)(F)C1 (single isomer, unassigned) [Example 137a, 3-(Bicyclo[1.1.1]pentan-1-yl)-1-((3,3-difluoro-1-methylcyclobutyl)methyl)-4-(difluoromethyl)-N-(2-(S-methylsulfonimidoyl)pyridin-4-yl)-1H-pyrazole-5-carboxamide] | ≤ 100
12 | CC1(Cn2nc(C34CC(F)(C3)C4)c(C(F)(F)F)c2C(=O)Nc2cccc(S(C)(=N)=O)c2)CC(F)(F)C1 (single isomer, unassigned) [Example 111a, 1-((3,3-difluoro-1-methylcyclobutyl)methyl)-3-(3-fluorobicyclo[1.1.1]pentan-1-yl)-N-(3-(S-methylsulfonimidoyl)phenyl)-4-(trifluoromethyl)-1H-pyrazole-5-carboxamide] | ≤ 100
13 | CC1(Cn2nc(C34CC(C3)C4)c(C(F)F)c2C(=O)Nc2ccnc(S(C)(=N)=O)c2)CC(F)(F)C1 (single isomer, unassigned) [Example 137b, 3-(Bicyclo[1.1.1]pentan-1-yl)-1-((3,3-difluoro-1-methylcyclobutyl)methyl)-4-(difluoromethyl)-N-(2-(S-methylsulfonimidoyl)pyridin-4-yl)-1H-pyrazole-5-carboxamide] | ≤ 100
14 | CC1(Cn2nc(C34CC(C3)C4)c(C(F)(F)F)c2C(=O)Nc2ccnc(S(C)(=N)=O)c2)CC(F)(F)C1 (single isomer, unassigned) [Example 58b, 3-(Bicyclo[1.1.1]pentan-1-yl)-1-((3,3-difluoro-1-methylcyclobutyl)methyl)-N-(2-(S-methylsulfonimidoyl)pyridin-4-yl)-4-(trifluoromethyl)-1H-pyrazole-5-carboxamide] | ≤ 100
15 | CC1(Cn2nc(C3CC34CC4)c(C(F)(F)F)c2C(=O)Nc2ccnc(S(C)(=N)=O)c2)CC(F)(F)C1 (single isomer, unassigned) [Example 64a, 1-((3,3-difluoro-1-methylcyclobutyl)methyl)-N-(2-(S-methylsulfonimidoyl)pyridin-4-yl)-3-(spiro[2.2]pentan-1-yl)-4-(trifluoromethyl)-1H-pyrazole-5-carboxamide] | ≤ 100
16 | C[S@](=N)(=O)c1cc(NC(=O)c2c(C(F)(F)F)c(C3CC3)nn2C[C@@H]2CC23CC3)ccn1 (single isomer, unassigned) [Example 78b, 3-cyclopropyl-N-(2-(S-methylsulfonimidoyl)pyridin-4-yl)-1-(spiro[2.2]pentan-1-ylmethyl)-4-(trifluoromethyl)-1H-pyrazole-5-carboxamide] | ≤ 100
17 | C[C@@]1(Cn2nc(C3CC3)c(C(F)(F)F)c2C(=O)Nc2ccnc([S@](C)(=N)=O)c2)CC(F)(F)C12CC2 (single isomer, unassigned) [Example 92c, 3-cyclopropyl-1-((6,6-difluoro-4-methylspiro[2.3]hexan-4-yl)methyl)-N-(2-(S-methylsulfonimidoyl)pyridin-4-yl)-4-(trifluoromethyl)-1H-pyrazole-5-carboxamide] | ≤ 100
18 | CC1(Cn2nc(C3CC3)c(C(F)(F)F)c2C(=O)Nc2ccnc(S(C)(=O)=NC#N)c2)CC(F)(F)C1 (single isomer, unassigned) [Example 142b, N-(2-(N-Cyano-S-methylsulfonimidoyl)pyridin-4-yl)-3-cyclopropyl-1-((3,3-difluoro-1-methylcyclobutyl)methyl)-4-(trifluoromethyl)-1H-pyrazole-5-carboxamide] | ≤ 100
